# According to article PMC7948978, “MpeV is a lyase isomerase that ligates a doubly linked phycourobilin on the β-subunit of phycoerythrin I and II in marine Synechococcus” (The Journal of Biological Chemistry, 2020):
# How the values were obtained:
# CpeS = biological target: T1, CpeS (Synechococcus sp. RS9916, UniProt Q05Q42); assay: co-expression in E. coli; absorbance, zinc-enhanced fluorescence and LC-MS-MS of purified CpeB; type: cell-based; conditions: protein co-substrate CpeB or MpeB, site C82; CpeZ enhances
# T1 construct: recombinant, pCpeS plasmid; co-expressed in E. coli with bilin synthesis genes and phycoerythrin subunits; CpeS itself not assayed purified
# T1 sequence (Q05Q42 1-178): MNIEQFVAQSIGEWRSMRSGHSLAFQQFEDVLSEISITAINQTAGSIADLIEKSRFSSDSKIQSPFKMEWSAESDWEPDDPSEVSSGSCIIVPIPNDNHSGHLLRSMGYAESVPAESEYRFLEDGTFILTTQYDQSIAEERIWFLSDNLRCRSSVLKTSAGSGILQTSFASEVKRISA
# [1] = biological target: T2, MpeB (beta-subunit of phycoerythrin II) (Synechococcus sp. RS9916, UniProt Q05Q49); assay: LC-MS-MS of trypsin-digested purified protein after co-expression with lyases in E. coli; type: binding; conditions: covalent
# T2 construct: with C-phycoerythrin class II alpha chain (phycoerythrin II alpha subunit)
# Description: LC-MS-MS of trypsin-digested purified protein after co-expression with lyases in E. coli on MpeB (beta-subunit of phycoerythrin II)
# [2] = biological target: T3, CpeB (beta-subunit of phycoerythrin I) (Synechococcus sp. RS9916, UniProt Q05Q60, C50A); assay: as above; type: binding
# T3 construct: with C-phycoerythrin class I alpha chain (phycoerythrin I alpha subunit)
# Description: LC-MS-MS of trypsin-digested purified protein after co-expression with lyases in E. coli on CpeB (beta-subunit of phycoerythrin I) | no peptide ions from the C50A mutant coexpressions modified with PUB at the C61 position
# [3] = biological target: T4, CpeB (beta-subunit of phycoerythrin I) (Synechococcus sp. RS9916, UniProt Q05Q60, C61A); assay: as above; type: binding; conditions: covalent, same co-expression
# T4 construct: with C-phycoerythrin class I alpha chain (phycoerythrin I alpha subunit)
# Description: (§1) LC-MS-MS of trypsin-digested purified protein after co-expression with lyases in E. coli on CpeB (beta-subunit of phycoerythrin I)
# [4] = biological target: T5, CpeB (beta-subunit of phycoerythrin I) (Synechococcus sp. RS9916, UniProt Q05Q60); assay: as above; type: binding; conditions: covalent
# T5 construct: with C-phycoerythrin class I alpha chain (phycoerythrin I alpha subunit)
# Description: as §1
# [5] = biological target: T6, CpeB (beta-subunit of phycoerythrin I) (Synechococcus sp. RS9916, UniProt Q05Q60, C50A/C61A); assay: zinc-enhanced bilin fluorescence of gel bands over anti-CpeB western blot; type: binding; conditions: covalent, site C82, attached by CpeS, co-expressed with CpeA, MpeV, CpeZ and bilin synthesis genes
# T6 construct: with C-phycoerythrin class I alpha chain (phycoerythrin I alpha subunit)
# Description: zinc-enhanced bilin fluorescence of gel bands over anti-CpeB western blot on CpeB (beta-subunit of phycoerythrin I)
# [6] = doubly linked at C50 and C61, attached by MpeV, same co-expression
"β-165 / β-82 ([1]; site C82, attached by CpeS, co-expressed with MpeA, MpeV, CpeZ and bilin synthesis genes)","Bilin added ^a ([2]; covalent, site C82, attached by CpeS, co-expressed with CpeA, CpeS, MpeV, CpeZ and bilin synthesis genes)","Bilin added ^a ([3]; site C82, attached by CpeS)","β-82 ^b / α-140 ([4]; site C82, attached by CpeS, co-expressed with CpeA, MpeV, CpeZ and bilin synthesis genes)",Percentage chromophorylation (% ± SD) ^b [5],"β-50, 61 [1, 6]","Bilin added ^a ([2]; covalent attachment at C61 tested, not detected, same co-expression)","Bilin added ^a ([3]; single linkage by A ring at C50, attached by MpeV)","β-50, 61 ^b / β-159 [4, 6]",SMILES,"co-expression in E. coli; absorbance, zinc-enhanced fluorescence and LC-MS-MS of (CpeS)"
99.7%,76.3%,100%,98.2%,89.0 ± 12.3 % of WT,,,,,"C=CC1=C(C)C(CC2=NC(=Cc3[nH]c(C=C4NC(=O)C(C)C4=CC)c(C)c3CCC(=O)O)C(CCC(=O)O)=C2C)NC1=O (stereo not shown) [PEB, phycoerythrobilin]",The lyase CpeS is able to attach PEB to CpeB
,,,,,84.7%,0%,7.6%,29.4%,"C=CC1=C(C)[C@@H](CC2=N/C(=C\c3[nH]c(C[C@H]4NC(=O)C(C)=C4C=C)c(C)c3CCC(=O)O)C(CCC(=O)O)=C2C)NC1=O [PUB, phycourobilin]",
